Measured values from patent US8975265B2, “Substituted imidazo[1,2-a]pyrimidines and —pyridines” (Bayer Intellectual Property GmbH, priority 2010, dated 2015).
Where two headings read alike, the source gives them in different places.

Legend:
[1] = test system: p-AKT1/2/3-S473 in KPL4 breast tumour cell line; test: Cellular p-AKT1/2/3-S473 assay; assay type: cell-based; conditions: KPL4 breast tumour cell line, 2 hours treatment; read-out: pAKT-S743 median IC50
Procedure, shortened: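 KPL4 cells (PIK3CA H1047R, HER2 0/E, hormone independent) were seeded at 60–80% confluency, cultured overnight, then exposed to compound for 2 h at 37 °C. pAKT-S473 and total AKT measured together by MSD Akt Duplex on 20 µg extract; pAKT expressed as % of total AKT, at least duplicate with independent repeats.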

[2] = test system: KPL-4 breast cancer cell line; test: Tumor cell proliferation assay (CellTiter-Glo, 72 h), KPL-4; assay type: cell-based; conditions: KPL4, 72h drug exposure
Procedure, shortened: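 KPL-4 cells were treated with compound for 72 h at 37°C. Viability was measured as ATP by CellTiter-Glo luminescence, with a separate t=0 plate read after overnight attachment. A reference compound was run as standard.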

[3] = test system: p-AKT S473 in PC3 human prostate tumours; test: In vivo xenograft mechanism of action study; parameters: species or system athymic nude mice; conditions: Mus musculus, po, PC3 tumours in nude mice, once 50 mg/kg p.o.
From the text: In Vivo Xenograft Mechanism of Action Study
To this extent PC3 human prostate tumours were xenografted onto athymic nude mice. PC3 tumour cells were cultivated according to ATCC protocols in recommended media contained 10% FCS and harvested for transplantation in a subconfluent (70%) state. 3×10^6 tumour cells suspended in 50% Matrigel were subcutaneously implantated into the inguinal region of male mice. Tumours were allowed to grow to the predetermined size of 60-80 mm^2. When the tumours were approximately in size, the animals were randomized to treatment and control groups (groups size: 9 animals) and treatment was started. Animals were treated once with 50 mg/kg compound or vehicle per oral administration (p.o.) carried out via a gastric tube. Treatment of each animal was based on individual body weight. At 2, 5 and 24 hours post treatment 3 animals each were sacrificed and the PC3 tumours excised. Tumour samples of approximately 5×5×5 mm were lysed on ice in MSD lysis buffer in the presence of protease and phosphatase inhibitors using Tissue Lyzer (Qiagen, Germany). The levels of p-AKT S473 in extracts from tumour tissue were analysed in an ELISA based assay. This assay is based on the “Akt Duplex” of the MULTI-SPOT® Assay System (Fa. Meso Scale Discovery, Cat# N41100B-1) following manufacturers instructions. Each assay used 20 μg of protein extract and measured total AKT and p-AKT content simultaneously in one well. All measurements where at least done in duplicates and confirmed by independent repetition.
Values for P-AKT are expressed as percentage of P-AKT level compared to total-AKT content of the extracts. Vehicle treated tumours were analyzed to determine the basal level of P-AKT in this model and used as a normalization control to determine the % P-AKT relative to vehicle levels.

[4] = target: His-tagged human recombinant kinase full-length Akt1 (Homo sapiens (Human), UniProt P31749); test: Akt1 kinase assay (TR-FRET); assay type: biochemical; conditions: 10 μM ATP; read-out: Akt1, median IC50
Procedure, shortened: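 Full-length His-tagged Akt1 (about 0.05 ng/μl final) preincubated 15 min at 22 °C with compound in 50 mM TRIS/HCl pH 7.5, 5 mM MgCl2, 1 mM DTT, 0.02% Triton X-100; biotinylated peptide substrate. Phosphopeptide detected by TR-FRET (Eu-chelate antibody to streptavidin-XL665) after 1 h at 22 °C.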

MCF7 = test: Tumor cell proliferation assay (CellTiter-Glo, 72 h), MCF7; assay type: cell-based; conditions: Homo sapiens, 72h drug exposure
Procedure, shortened: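 Cells seeded at 3000–5000/well and incubated overnight, then exposed to compound for 72 h at 37 °C. Viability measured by CellTiter-Glo ATP luminescence, with a separate plate read at t=0.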

[5] = test system: p-4E-BP1-T70 in KPL4 breast tumour cell line; test: Cellular p-4E-BP1-T70 assay; assay type: cell-based; conditions: 2 hours treatment, read-out: P4EBP1-T70 median IC50
Procedure: The molecular mechanism of action was investigated in a set of experiments to assess the inhibition of the PI3K-AKT-mTOR pathway in responsive cell lines such as KPL4 breast tumour cell line (PIK3CAH1047R, HER20/E and hormone independent). The phospho-substrates of PI3K-AKT-mTOR axis were used as the read-outs to reflect pathway inhibition. Cells were seeded at 60-80% confluency per well in 96-well cell culture plates. After overnight incubation at 37° C. 5% CO2, cells were treated with compounds and vehicle at 37° C. for 2 hours. Thereafter, cells were lysed in 150 μl lysis buffer and the levels of phospho-AKT at T308 and S473 and p-4E-BP1 at T70 sites were determined with the corresponding AlphaScreen® SureFire® assay kits (Perkin Elmer: 4E-BP1 Assay Kit Cat # TRG4E2S10K; Akt 1/2/3 p-Ser 473 #TGRA4S500 and Akt 1/2/3 p-Thr 308 #TGRA3S500 as well as IgG detection Kit #6760617M) as described in the manuals. All measurements where at least done in duplicates and confirmed by independent repetition.

[6] = 2 hours post treatment, read-out: P-AKT % relative to control at 2 hours
[7] = 5 hours post treatment, read-out: P-AKT % relative to control at 5 hours

Chain of His-tagged human recombinant kinase full-length Akt1 (P31749 whole entry): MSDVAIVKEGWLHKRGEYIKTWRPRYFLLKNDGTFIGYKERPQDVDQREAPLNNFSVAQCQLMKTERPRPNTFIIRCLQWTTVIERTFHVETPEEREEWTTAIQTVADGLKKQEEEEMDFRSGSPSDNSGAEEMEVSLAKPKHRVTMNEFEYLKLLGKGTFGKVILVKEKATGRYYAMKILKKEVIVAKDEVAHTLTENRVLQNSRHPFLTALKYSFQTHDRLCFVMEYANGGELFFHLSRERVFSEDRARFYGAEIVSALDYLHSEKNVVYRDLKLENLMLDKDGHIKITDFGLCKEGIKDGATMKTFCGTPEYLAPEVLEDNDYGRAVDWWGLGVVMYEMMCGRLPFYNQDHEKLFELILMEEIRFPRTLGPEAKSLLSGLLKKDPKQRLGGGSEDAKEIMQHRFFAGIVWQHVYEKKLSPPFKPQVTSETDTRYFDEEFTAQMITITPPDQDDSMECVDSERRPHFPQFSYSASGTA

Structure (SMILES)	IC50 [1]	IC50 [2]	IC50 [4]	IC50 (MCF7)	IC50 [5]	response vs control in vivo at 50 mg/kg [3, 6]	response vs control in vivo at 50 mg/kg [3, 7]
NC1(c2ccc(-c3nc4ncc(-c5ccccc5)cn4c3-c3ccccc3)cc2)CCC1 [Example 1-9]	770 nM	2000 nM	–	–	–	32.2%	21.1%
COc1ccn2c(-c3ccccc3)c(-c3ccc(C4(N)CCC4)cc3)nc2n1 [Example 2-00, 1-[4-(7-methoxy-3-phenyl-imidazo[1,2-a]pyrimidin-2-yl)-phenyl]-cyclobutylamine]	–	–	–	–	–	4.7%	6.3%
NC(=O)c1ccc2nc(-c3ccc(C4(N)CCC4)cc3)c(-c3ccccc3)n2c1 [Example 2-18]	33 nM	500 nM	–	–	–	8%	7.7%
NC(=O)c1ccn2c(-c3ccccc3)c(-c3ccc(C4(N)CCC4)cc3)nc2c1 [Example 2-41]	33 nM	600 nM	–	–	–	10.2%	8.8%
COc1cc(Br)cn2c(-c3ccccc3)c(-c3ccc(C4(N)CCC4)cc3)nc12 [Example 2-52]	49 nM	1500 nM	19 nM	1100 nM	–	34.9%	47.9%
NC1(c2ccc(-c3nc4c(F)cc(F)cn4c3-c3ccccc3)cc2)CCC1 [Example 2-75]	79 nM	1100 nM	52 nM	600 nM	1600 nM	5.5%	6.2%
Cc1c(Cl)cn2c(-c3ccccc3)c(-c3ccc(C4(N)CCC4)cc3)nc2c1Br [Example 2-81]	1100 nM	1800 nM	–	1700 nM	3480 nM	33.6%	69.6%
Cc1cc(-c2cccnc2)c2nc(-c3ccc(C4(N)CCC4)cc3)c(-c3ccccc3)n2c1 [Example 2-90]	337 nM	1900 nM	–	1700 nM	1560 nM	51.6%	53.7%
Cc1cc(-c2ccn[nH]2)c2nc(-c3ccc(C4(N)CCC4)cc3)c(-c3ccccc3)n2c1 [Example 2-92]	1400 nM	4300 nM	229 nM	4300 nM	1570 nM	34.6%	22%
NC1(c2ccc(-c3nc4cc(-c5ncc[nH]5)ccn4c3-c3ccccc3)cc2)CCC1 [Example 2-114]	25 nM	800 nM	71 nM	700 nM	–	47%	57.2%
CC(=O)c1ccc2nc(-c3ccc(C4(N)CCC4)cc3)c(-c3ccccc3)n2c1 [Example 2-144]	91 nM	1700 nM	55 nM	1300 nM	1310 nM	6.3%	8%
COc1cc(Cl)cn2c(-c3ccccc3)c(-c3ccc(C4(N)CCC4)cc3)nc12 [Example 2-145]	105 nM	1000 nM	24 nM	300 nM	1210 nM	33%	38%
COc1cc(OC)c2nc(-c3ccc(C4(N)CCC4)cc3)c(-c3ccccc3)n2c1 [Example 2-146]	43 nM	700 nM	–	600 nM	636 nM	17.5%	22.3%
Nc1ccn2c(-c3ccccc3)c(-c3ccc(C4(N)CCC4)cc3)nc2c1 [Example 2-151]	482 nM	1700 nM	514 nM	200 nM	4810 nM	–	–
Nc1ccc2nc(-c3ccc(C4(N)CCC4)cc3)c(-c3ccccc3)n2c1 [Example 2-155]	374 nM	5500 nM	854 nM	1700 nM	2220 nM	–	–
CC(=O)Nc1ccc2nc(-c3ccc(C4(N)CCC4)cc3)c(-c3ccccc3)n2c1 [Example 2-156]	190 nM	900 nM	62 nM	500 nM	1210 nM	–	–
CS(=O)(=O)Nc1ccc2nc(-c3ccc(C4(N)CCC4)cc3)c(-c3ccccc3)n2c1 [Example 2-159]	907 nM	4700 nM	2990 nM	2800 nM	3280 nM	–	–

Now from value to compound, other results behind:

IC50 [1]	IC50 [2]	IC50 [4]	IC50 (MCF7)	IC50 [5]	Structure (SMILES)	response vs control in vivo at 50 mg/kg [3, 6]	response vs control in vivo at 50 mg/kg [3, 7]
235 nM	1800 nM	–	1700 nM	3980 nM	Cc1cc(C)c2nc(-c3ccc(C4(N)CCC4)cc3)c(-c3ccccc3)n2c1 [Example 2-73]	9.1%	9.3%
528 nM	2000 nM	–	1800 nM	1420 nM	Cc1cc(-c2cn[nH]c2)c2nc(-c3ccc(C4(N)CCC4)cc3)c(-c3ccccc3)n2c1 [Example 2-93]	46%	79.2%
1610 nM	10000 nM	893 nM	10000 nM	1840 nM	Cc1cc(C(N)=O)c2nc(-c3ccc(C4(N)CCC4)cc3)c(-c3ccccc3)n2c1 [Example 2-96]	12.2%	11.4%
115 nM	1900 nM	–	500 nM	2660 nM	NC1(c2ccc(-c3nc4ccc(Cl)cn4c3-c3ccccc3)cc2)CCC1 [Example 2-140]	26%	18%
349 nM	1600 nM	191 nM	800 nM	1380 nM	C=Cc1cc(OC)c2nc(-c3ccc(C4(N)CCC4)cc3)c(-c3ccccc3)n2c1 [Example 2-160]	–	–
16 nM	800 nM	58 nM	400 nM	620 nM	NC(=O)c1cccn2c(-c3ccccc3)c(-c3ccc(C4(N)CCC4)cc3)nc12 [Example 6-0, 2-[4-(1-amino-cyclobutyl)-phenyl]-3-phenyl-imidazo[1,2-a]pyridine-8-carboxylic acid amide]	5.8%	6%
1120 nM	3100 nM	1500 nM	1800 nM	8150 nM	Cc1cccc2nc(-c3ccc(C4(N)CCC4)cc3)c(-c3ccccc3)n12 [Example 14-0, 1-[4-(5-methyl-3-phenylimidazo[1,2-a]pyridin-2-yl)phenyl]cyclobutanamine]	–	–
